Assay results as given in patent US10624917B2, “Compositions and methods useful for treating or preventing liver diseases or disorders, and promoting weight loss” (YALE UNIVERSITY, priority 2014, dated 2020).
“Also recorded” adds a separate entry of the source.

Key:
[1] = tested on: C57BL/6 mice challenged with LPS/D-galactosamine; assay: LPS/D-GalN hepatitis (acute liver injury) model; assay type: in vivo, mouse
Procedure: FIGS. 23A-23D illustrate the finding that digoxin protects the severity of experimental acute liver failure. Digoxin was administrated intraperitoneally to C57BL/6 mice at dose level of 2, 1, 0.2, 0.05 mg/kg body weight and saline control for 1 hour, and then the mice were challenged with LPS (1 mg/kg body weight)/D-galactosamine (D-GalN) for 5 hours. The morphology of liver tissue was determined by H & E staining, and the inflammation was determined by the neutrophil infiltration of Gr-1 antibody staining Representative H & E stains (FIG. 23A, upper), and Gr-1 (FIG. 23A, lower) positive area of liver sections (original magnification ×100) from digoxin and saline control are illustrated. Graphs show quantification of injured (FIG. 23B) or Gr-1 (FIG. 23C) positive area by morphometry using Image J. *p<0.05 for each dosage of digoxin group versus saline control. The activity of the hepatic injury marker alanine transaminase (ALT) in serum level from digoxin versus saline control was measured (FIG. 23 D). All data throughout the figure are shown as the mean±SD. Statistical significance was determined by one-way ANOVA.
FIGS. 25A-25H illustrate the finding that digoxin alleviates hepatic oxidative stress and inflammasome activation. C57BL/6 mice were injected intraperitoneally with digoxin (1 mg/kg) and PBS control for 1 hour, and then challenged with LPS (1 mg/kg)/D-GlaN (500 mg/kg) for 5 h; C57BL/6 mice were on HFD with concurrent intraperitoneal injection of digoxin (1 mg/kg) for 12 weeks. The cellular oxidative stress and intracellular ROS production was monitored by intraperitoneal injection of DHE in last 30 min before the mice sacrificed. Representative DHE stains in LPS/D-GlaN (FIG. 25A) and HFD (FIG. 25B) from digoxin versus saline control are illustrated. The quantification of DHE positive area in digoxin versus saline control was performed (FIG. 25A, lower, and FIG. 25B, lower). The total RNA from liver tissue was isolated, and applied for gene expression of proIL-1β, TNFα, NLRP3 and HIF1a (FIGS. 25C-25F). The total liver protein was applied for protein expression of HIF1α, caspase-1, proIL-1β by western blot (FIG. 25H). The serum IL-1β was measured by ELISA (FIG. 25G). All data throughout the figure are shown as the mean±SD from 5 mice in each group. Statistical significance was determined by one-way ANOVA. *p<0.05, **p<0.01 for each digoxin group versus saline control.
(§1) C57BL/6J male mice were placed on a 45% high-fat diet (HFD) for […] with and without digoxin (ip 1 mg/kg twice a week). Digoxin, 1 mg/kg ip daily, in mice results in the therapeutic serum levels achieved in humans (0.5-2 ng/ml). Plasma ALT, liver histology, neutrophil staining, leukocytes profiling, mitochondrial reactive oxygen species (ROS) generation, and gene transcriptome microarrays were analyzed. The ability of digoxin to inhibit inflammasome in mouse and human macrophages was tested. The chronic plus binge model of alcoholic hepatitis and LPS/D-GalN hepatitis models were also performed.

[2] = in vivo; details: mouse, 1 mg/kg
Procedure: FIG. 19 is a bar graph illustrating plasma digoxin levels in mice. Saline or digoxin were daily injected in mice at a dose of 1.0 mg/kg. Plasma digoxin levels measured 24 hours after the final injection were at or below the therapeutic range for humans (0.8-2 ng/mL).
as §1

[3] = tested on: C57BL/6 mice on high-fat diet; assay: High-fat diet (HFD) NASH model; assay type: in vivo, mouse
Procedure: FIGS. 21A-21C illustrate the finding that digoxin reduces liver damage, inflammation, glycolysis and total cholesterol. FIG. […] The liver tissues were performed by H & E staining, and the neutrophils were stained with CD11b/Ly6G double positive cells by FACS. Data are expressed as the mean±SD from 5 mice in each treatment group. *p<0.05 determined by Student's t-test. […] Data are expressed as the mean±SD from 5 mice in each treatment group. *p<0.05 determined by Student's t-test. FIG. 21C: The liver total RNA were isolated from as procedure from FIG. 21a, and subjected to illumina transcriptome analysis. Over 15 genes that most highly expressed were listed. Data are expressed as the mean±SD from 3 mice in each treatment group
FIGS. 22A-22D illustrate the finding that digoxin reduces high fat feeding induced obesity in mice. Wild type C57BL/6 mice were supplied with high-fat diet food (Research diets D12451 45% fat) for 12 weeks with or without the concurrent IP injection of Digoxin (twice a week, 1.0 mg/kg) or PBS control. The body weight was carefully monitored as the change of each 3 day's average. […] FIG. 22A illustrates examples of mice on high-fat diet with (DIG) and without (Ctrl) digoxin. […] The ratio of white adipose tissue and bodyweight after 12 weeks is shown (FIG. 22C). […] Data are expressed as the mean±SD from 5 mice in each treatment group. *p<0.05 determined by Student's t-test.
FIGS. 24A-24G illustrate the finding that digoxin limits hepatic steatosis and inflammation. […] The liver tissues were applied for H & E staining, and graphs show quantification of NAFLD histological activity score (FIGS. 24A-24B). The liver tissue inflammation was also determined by the neutrophil and monocyte infiltration, which measured by CD11b/Ly6G and CD11b/Ly6C double positive cells using FACS ([…]). Representative FACS flows from digoxin versus saline control are shown (FIGS. 24F-24G). The quantification of neutrophils and monocytes in digoxin versus saline control was performed. Serum ALT level in digoxin versus saline control was measured (FIGS. 24C-24D). The steatosis maker of triacylglcerol (TG) accumulation in the lever after digoxin treatment versus saline control was determined (FIG. 24E). All data throughout the figure are shown as the mean±SD from 5 mice in each group. Statistical significance was determined by one-way ANOVA. *p<0.05, **p<0.01 for each digoxin group versus saline control.
as §1

[4] = tested on: mouse macrophages; assay: Mitochondrial ROS production in mouse macrophages; assay type: cell-based; details: TLR and hydrogen peroxide stimulation
[5] = tested on: mice, chronic plus binge model of alcoholic hepatitis; assay: Chronic plus binge model of alcoholic hepatitis; assay type: in vivo, mouse
Procedure: as §1

[6] = tested on: human macrophages; assay: Mitochondrial ROS production in human macrophages; assay type: cell-based; details: TLR and hydrogen peroxide stimulation
[7] = tested on: IL-1β secretion and caspase-1 activation in mouse macrophages; assay: Inflammasome inhibition in mouse macrophages; assay type: cell-based
Procedure: as §1

[8] = ip 1 mg/kg, LPS/D-GlaN (5 h) and HFD (12 weeks) mice
[9] = twice, a quarter and a twentieth of the human equivalent dose
[10] = HFD 12 weeks, IP twice a week 1.0 mg/kg
[11] = HFD 12 weeks, ip 0.2 and 0.05 mg/kg twice a week, low dose-dependent manner

SMILES: C[C@H]1O[C@@H](O[C@@H]2[C@@H](O)C[C@H](O[C@@H]3[C@@H](O)C[C@@H](O[C@H]4CC[C@@]5(C)[C@H](CC[C@@H]6[C@@H]5C[C@@H](O)[C@]5(C)C(C7=CC(=O)OC7)CC[C@]65O)C4)O[C@@H]3C)O[C@@H]2C)C[C@H](O)[C@H]1O (stereo partly drawn) [digoxin, 4-[(3S,5R,8R,9S,10S,12R,13S,14S)-3-[(2S,4S,5R,6R)-5-[(2S,4S,5R,6R)-5-[(2S,4S,5R,6R)-4,5-dihydroxy-6-methyl-oxan-2-yl]oxy-4-hydroxy-6-methyl-oxan-2-yl]oxy-4-hydroxy-6-methyl-oxan-2-yl]oxy-12,14-dihydroxy-10,13-dimethyl-1,2,3,4,5,6,7,8,9,11,12,15,16,17-tetradecahydrocyclopenta[a]phenanthren-17-yl]-5H-furan-2-one]
- histological injury ([1]; LPS/D-GalN hepatitis): reduced
- neutrophilic infiltrate ([1]; LPS/D-GalN hepatitis): reduced
- serum ALT ([1]; LPS/D-GalN hepatitis): lower
- hepatic oxidative stress [1, 8]: alleviates
- inflammasome activation [1, 8]: alleviates
- severity of experimental acute liver failure ([1]; ip 2, 1, 0.2, 0.05 mg/kg 1 hour before LPS/D-GalN for 5 hours): protects
- inflammation in an acute liver injury model ([1]; mouse, in vivo): inhibits
- HIF-1α protein [1, 9]: reduction
- IL-1β protein [1, 9]: reduction
- cleaved (P10) caspase-1 protein [1, 9]: reduction
- liver HIF-1α transcripts [1, 9]: reduction
- liver Pro-IL-1β transcripts [1, 9]: reduction
- liver hemorrhage and necrosis [1, 9]: improvement
- pro-IL-1β protein [1, 9]: reduction
- concentration at 24 h [2]: 0.8 to 2 ng/mL
- concentration at 24 h ([2]; ip): 0.5 to 2 ng/mL
- fat deposition (liver oil red, TG content) ([3]; HFD 12 weeks, 1 mg/kg twice a week): reduces
- glycolysis [3, 10]: reduces
- high fat feeding induced obesity [3, 10]: reduces
- liver damage [3, 10]: reduces
- serum total cholesterol [3, 10]: reduces
- hepatic steatosis [3, 11]: limits
- liver inflammation [3, 11]: limits
- signal genes of ROS metabolism, antioxidant pathway and glycolysis (microarray) ([3]; HFD liver): down-regulated
- serum ALT ([3]; HFD+DIG, HFD alone 417±398 U/L, P<0.001): 91±73 U/L
- liver inflammation ([3]; HFD, IP twice a week 1 mg/kg): reduces; also recorded: limits
- hepatic steatosis ([3]; HFD, ip 1 mg/kg twice a week): limits
- histological injury ([3]; HFD, ip 1 mg/kg twice a week): reduced
- neutrophilic infiltrate ([3]; HFD, ip 1 mg/kg twice a week): reduced
- liver inflammation ([3]; digoxin started after 4 weeks HFD): significant reduction
- liver neutrophil ([3]; digoxin started after 4 weeks HFD, HFD alone 24.6%): 14.3%
- liver monocytes ([3]; digoxin started after 4 weeks HFD, HFD alone 31.6%): 19.1%
- body weight / weight gain ([3]; mice on HFD): less weight gain; also recorded: changes
- mitochondrial ROS production [4]: dose-dependently inhibited
- histological injury [5]: reduced
- neutrophilic infiltrate [5]: reduced
- serum ALT [5]: lower
- mitochondrial ROS production [6]: dose-dependently inhibited
- IL-1 β secretion [7]: inhibited
- caspase-1 activation [7]: inhibited
